Experimental data from PubChem BioAssay AID1963447 (Molecular Pharmacology Branch, DTP, NCI, 2024).

Test system: 885512-296-R-J2-PDC complex spheroid growth, % test/control
Assay: Anticancer human tumor 885512-296-R-J2-PDC patient-derived breast carcinoma cell line growth inhibition [Asc]
Settings: for IC50: curve of first compound; for viability, T/C: stronger effect = lower value
Method in brief: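 Complex solid-tumor spheroids incorporating human endothelial and mesenchymal stem cells received single agents or combinations over half-log dilution ranges anchored to clinical Cmax.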

[1] = second compound 0.03 µM, first compound 0.00316 µM
[2] = second compound 0.03 µM, first compound 0.01 µM
[3] = second compound 0.03 µM, first compound 0.0316 µM
[4] = second compound 0.03 µM, first compound 0.1 µM
[5] = second compound 0.0949 µM, first compound 0.00316 µM
[6] = second compound 0.0949 µM, first compound 0.01 µM
[7] = second compound 0.0949 µM, first compound 0.0316 µM
[8] = second compound 0.0949 µM, first compound 0.1 µM
[9] = second compound 0.3 µM, first compound 0.00316 µM
[10] = second compound 0.3 µM, first compound 0.01 µM
[11] = second compound 0.3 µM, first compound 0.0316 µM
[12] = second compound 0.3 µM, first compound 0.1 µM
[13] = second compound 0.949 µM, first compound 0.00316 µM
[14] = second compound 0.949 µM, first compound 0.01 µM
[15] = second compound 0.949 µM, first compound 0.0316 µM
[16] = second compound 0.949 µM, first compound 0.1 µM
[17] = second compound 3 µM, first compound 0.00316 µM
[18] = second compound 3 µM, first compound 0.01 µM
[19] = second compound 3 µM, first compound 0.0316 µM
[20] = second compound 3 µM, first compound 0.1 µM
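Also: spheroids exposed to compounds for seven days.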
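For viability, T/C in this document: 100% = DMSO vehicle control wells.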

COc1c(OCCCN2CCOCC2)ccc2c3n(c(=NC(=O)c4cnc(N)nc4)nc12)CCN3 + CCN1C(C(=O)NC23CCC(C(=O)O)(CC2)CC3)C(c2cccc(Cl)c2F)C2(C(=O)Nc3cc(Cl)ccc32)C12CCCCC2
IC50 (second compound 0.03 µM): 285 nM | IC50 (second compound 0.0949 µM): 259 nM | IC50 (second compound 0.3 µM): 204 nM | IC50 (second compound 0.949 µM): 126 nM | IC50 (second compound 3 µM): < 3.16 nM | viability, T/C [1]: 80.1% | viability, T/C [2]: 87.9% | viability, T/C [3]: 93.5% | viability, T/C [4]: 72.6% | viability, T/C (second compound 0.03 µM, first compound 0.316 µM): 48.3% | viability, T/C (second compound 0.03 µM, first compound 1 µM): 6.36% | viability, T/C [5]: 73.7% | viability, T/C [6]: 88.1% | viability, T/C [7]: 79.8% | viability, T/C [8]: 64.7% | viability, T/C (second compound 0.0949 µM, first compound 0.316 µM): 47.4% | viability, T/C (second compound 0.0949 µM, first compound 1 µM): 6.12% | viability, T/C [9]: 82.7% | viability, T/C [10]: 68.5% | viability, T/C [11]: 80.1% | viability, T/C [12]: 63.2% | viability, T/C (second compound 0.3 µM, first compound 0.316 µM): 41.2% | viability, T/C (second compound 0.3 µM, first compound 1 µM): 6.26% | viability, T/C [13]: 61.5% | viability, T/C [14]: 54.5% | viability, T/C [15]: 64.4% | viability, T/C [16]: 50% | viability, T/C (second compound 0.949 µM, first compound 0.316 µM): 38.8% | viability, T/C (second compound 0.949 µM, first compound 1 µM): 6.82% | viability, T/C [17]: 47.1% | viability, T/C [18]: 32.4% | viability, T/C [19]: 28.6% | viability, T/C [20]: 35.4% | viability, T/C (second compound 3 µM, first compound 0.316 µM): 32.6% | viability, T/C (second compound 3 µM, first compound 1 µM): 6.56%

Cn1ncnc1[C@H]1c2n[nH]c(=O)c3cc(F)cc(c23)N[C@@H]1c1ccc(F)cc1 + CCN1C(C(=O)NC23CCC(C(=O)O)(CC2)CC3)C(c2cccc(Cl)c2F)C2(C(=O)Nc3cc(Cl)ccc32)C12CCCCC2
IC50 (second compound 0.03 µM): 37.8 nM | IC50 (second compound 0.0949 µM): 54.2 nM | IC50 (second compound 0.3 µM): 21 nM | IC50 (second compound 0.949 µM): 23.5 nM | IC50 (second compound 3 µM): < 0.316 nM | viability, T/C (second compound 0.03 µM, first compound 0.000316 µM): 88.7% | viability, T/C (second compound 0.03 µM, first compound 0.001 µM): 107% | viability, T/C [1]: 91.6% | viability, T/C [2]: 66.9% | viability, T/C [3]: 58% | viability, T/C [4]: 35.5% | viability, T/C (second compound 0.0949 µM, first compound 0.000316 µM): 91% | viability, T/C (second compound 0.0949 µM, first compound 0.001 µM): 101% | viability, T/C [5]: 93.3% | viability, T/C [6]: 76.2% | viability, T/C [7]: 57% | viability, T/C [8]: 43.1% | viability, T/C (second compound 0.3 µM, first compound 0.000316 µM): 80.5% | viability, T/C (second compound 0.3 µM, first compound 0.001 µM): 90.8% | viability, T/C [9]: 88% | viability, T/C [10]: 60% | viability, T/C [11]: 49.2% | viability, T/C [12]: 35.2% | viability, T/C (second compound 0.949 µM, first compound 0.000316 µM): 80.2% | viability, T/C (second compound 0.949 µM, first compound 0.001 µM): 72.6% | viability, T/C [13]: 63.1% | viability, T/C [14]: 60.5% | viability, T/C [15]: 47.7% | viability, T/C [16]: 35.3% | viability, T/C (second compound 3 µM, first compound 0.000316 µM): 43.9% | viability, T/C (second compound 3 µM, first compound 0.001 µM): 40.2% | viability, T/C [17]: 41.8% | viability, T/C [18]: 38.4% | viability, T/C [19]: 40.2% | viability, T/C [20]: 31.6%

C=C(F)C(=O)N1CCN(c2nc(OCC3CCCN3C)nc3c2CCN(c2cccc4cccc(Cl)c24)C3)CC1CC#N (stereo not given) + Cc1c(S(C)(=O)=O)c(-c2cc(F)cc(N3CCN(c4ccc(NS(=O)(=O)c5ccc(NC(CCN6CCC(C(=O)OCCCP(=O)(O)O)CC6)CSc6ccccc6)c(S(=O)(=O)C(F)(F)F)c5)cc4)CC3)c2)c(-c2ccc(Cl)cc2)n1C(C)C
IC50 (second compound 0.1 µM): 1870 nM | IC50 (second compound 0.316 µM): 1920 nM | IC50 (second compound 1 µM): 1910 nM | IC50 (second compound 3.16 µM): 1820 nM | IC50 (second compound 10 µM): 2140 nM | viability, T/C (second compound 0.1 µM, first compound 0.0316 µM): 85.7% | viability, T/C (second compound 0.1 µM, first compound 0.1 µM): 91% | viability, T/C (second compound 0.1 µM, first compound 0.316 µM): 93.2% | viability, T/C (second compound 0.1 µM, first compound 1 µM): 85.9% | viability, T/C (second compound 0.1 µM, first compound 3.16 µM): 19.7% | viability, T/C (second compound 0.1 µM, first compound 10 µM): 0.11% | viability, T/C (second compound 0.316 µM, first compound 0.0316 µM): 76.3% | viability, T/C (second compound 0.316 µM, first compound 0.1 µM): 96.2% | viability, T/C (second compound 0.316 µM, first compound 0.316 µM): 95% | viability, T/C (second compound 0.316 µM, first compound 1 µM): 90.5% | viability, T/C (second compound 0.316 µM, first compound 3.16 µM): 19.7% | viability, T/C (second compound 0.316 µM, first compound 10 µM): 0.13% | viability, T/C (second compound 1 µM, first compound 0.0316 µM): 83.2% | viability, T/C (second compound 1 µM, first compound 0.1 µM): 84.9% | viability, T/C (second compound 1 µM, first compound 0.316 µM): 97.1% | viability, T/C (second compound 1 µM, first compound 1 µM): 91.5% | viability, T/C (second compound 1 µM, first compound 3.16 µM): 19.5% | viability, T/C (second compound 1 µM, first compound 10 µM): 0.12% | viability, T/C (second compound 3.16 µM, first compound 0.0316 µM): 101% | viability, T/C (second compound 3.16 µM, first compound 0.1 µM): 90.3% | viability, T/C (second compound 3.16 µM, first compound 0.316 µM): 92.1% | viability, T/C (second compound 3.16 µM, first compound 1 µM): 82.6% | viability, T/C (second compound 3.16 µM, first compound 3.16 µM): 20.3% | viability, T/C (second compound 3.16 µM, first compound 10 µM): 0.12% | viability, T/C (second compound 10 µM, first compound 0.0316 µM): 115% | viability, T/C (second compound 10 µM, first compound 0.1 µM): 107% | viability, T/C (second compound 10 µM, first compound 0.316 µM): 96.5% | viability, T/C (second compound 10 µM, first compound 1 µM): 100% | viability, T/C (second compound 10 µM, first compound 3.16 µM): 24.4% | viability, T/C (second compound 10 µM, first compound 10 µM): 0.18%
